pIC50: −log10 of the molar value.
How the values were obtained:
[1] = tested on: tumors; conditions: literature statement; cited from earlier work
[2] = target: PARP1 enzyme (Homo sapiens (Human), UniProt P09874); assay: PARP Mass Spectroscopy Assay (PARP1 enzymatic assay, nicotinamide detection); type: biochemical; conditions: 5 nM PARP1, 5 uM β-NAD, 60 min at RT, NAM by mass spectrometry
Procedure, shortened: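 Compounds were pre-incubated 30 min at RT with 5 nM PARP1 and core histones, then reacted 60 min at RT with 5 uM β-NAD and activated DNA in Tris pH 8.0 buffer with MgCl2, NaCl, Triton X-100 and DTT. The reaction was quenched with 3ABA, and nicotinamide was measured by mass spectrometry. IC50 came from a four-parameter fit of 10-point curves.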

[3] = target: human MDR1 (P-glycoprotein; P-gp) (Homo sapiens (Human), UniProt P08183); assay: bi-directional MDCK-MDR1 permeability assay; type: in vitro ADME; conditions: MDCK-MDR1
Description: The bi-directional assay containing a Mandin Darby canine kidney (MDCK) cell line transfected with human MDR1 gene (P-glycoprotein; P-gp) designed to overexpress the MDR1 efflux transporter, a major efflux transporter at the blood brain barrier (BBB), uses an established method that measures the rate of flux of a compound across polarized cell monolayers. As well appreciated in the art, the data generated from the MDCK-MDR1 permeability assay may be used to predict in vivo absorption of drugs. The bi-directional MDCK-MDR1 permeability assay can identify and quantify levels of active efflux. Screening compounds in both the apical to basolateral direction (A→B) and basolateral to apical direction (B→A) across the cell monolayer provides a ratio of B→A/A→B (efflux ratio; “ER”). Unlike the Caco-2 assay, the MDCK-MDR1 assay is not subject to potential efflux interference by breast cancer resistance protein (BCRP). […] The data may further be used to predict blood brain barrier (BBB) permeability via calculation from the data of log(permeability-surface area product) (“log PS”), well-understood to be predictive of the in vivo log([brain concentration]/[plasma concentration]).

[4] = in vivo unbound brain to plasma ratio (Kpuu) at steady state; conditions: rat, brain and plasma (unbound), continuous intravenous infusion over 24 hours, Sprague Dawley rats, free drug in brain vs plasma
Experimental: Compounds of the present technology are predicted to show BBB passage according to internal proprietary predictive models. These predictive models were further verified by in vivo experiments. In particular, in vivo unbound brain to plasma ratio (Kpuu) was measured at steady state by comparison of free drug concentrations (protein binding corrected) in brain and plasma after continuous intravenous infusion in Sprague Dawley rats over 24 hours, where a Kpuu of >0.3 represents good brain exposure of the compound.

Sequence of human MDR1 (P-glycoprotein; P-gp) (P08183 whole entry): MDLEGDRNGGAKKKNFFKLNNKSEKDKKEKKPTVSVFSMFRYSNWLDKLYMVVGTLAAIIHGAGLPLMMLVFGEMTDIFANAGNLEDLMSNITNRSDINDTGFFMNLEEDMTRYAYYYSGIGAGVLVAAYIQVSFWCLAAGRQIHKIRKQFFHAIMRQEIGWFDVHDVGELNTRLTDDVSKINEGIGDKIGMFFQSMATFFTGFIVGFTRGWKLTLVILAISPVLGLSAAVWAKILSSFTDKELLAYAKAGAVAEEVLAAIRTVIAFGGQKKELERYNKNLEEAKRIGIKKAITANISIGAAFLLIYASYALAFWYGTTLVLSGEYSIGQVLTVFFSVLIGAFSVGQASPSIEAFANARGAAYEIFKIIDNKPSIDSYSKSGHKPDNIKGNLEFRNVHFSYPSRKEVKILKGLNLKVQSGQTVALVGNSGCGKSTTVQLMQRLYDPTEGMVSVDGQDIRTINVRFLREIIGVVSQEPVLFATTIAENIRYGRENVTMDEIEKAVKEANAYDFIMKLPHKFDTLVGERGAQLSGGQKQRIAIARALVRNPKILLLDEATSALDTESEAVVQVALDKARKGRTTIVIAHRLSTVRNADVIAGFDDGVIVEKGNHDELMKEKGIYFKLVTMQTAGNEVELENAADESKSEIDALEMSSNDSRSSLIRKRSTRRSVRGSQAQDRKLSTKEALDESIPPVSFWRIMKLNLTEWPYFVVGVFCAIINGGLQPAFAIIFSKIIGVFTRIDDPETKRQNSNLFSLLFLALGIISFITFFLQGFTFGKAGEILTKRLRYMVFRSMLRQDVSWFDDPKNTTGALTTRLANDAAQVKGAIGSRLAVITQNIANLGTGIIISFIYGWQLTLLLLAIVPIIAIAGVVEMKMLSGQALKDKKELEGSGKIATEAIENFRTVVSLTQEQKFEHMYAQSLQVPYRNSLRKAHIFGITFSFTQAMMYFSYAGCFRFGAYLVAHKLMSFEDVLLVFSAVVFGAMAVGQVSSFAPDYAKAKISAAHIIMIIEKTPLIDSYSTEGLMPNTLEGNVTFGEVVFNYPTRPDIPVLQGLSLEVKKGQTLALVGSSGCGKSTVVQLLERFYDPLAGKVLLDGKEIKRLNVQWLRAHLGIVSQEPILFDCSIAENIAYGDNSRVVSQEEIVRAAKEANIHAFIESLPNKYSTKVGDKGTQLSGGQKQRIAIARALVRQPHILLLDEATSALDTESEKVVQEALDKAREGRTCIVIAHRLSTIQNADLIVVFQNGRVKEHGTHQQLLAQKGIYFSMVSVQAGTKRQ
Sequence of PARP1 enzyme (P09874 whole entry): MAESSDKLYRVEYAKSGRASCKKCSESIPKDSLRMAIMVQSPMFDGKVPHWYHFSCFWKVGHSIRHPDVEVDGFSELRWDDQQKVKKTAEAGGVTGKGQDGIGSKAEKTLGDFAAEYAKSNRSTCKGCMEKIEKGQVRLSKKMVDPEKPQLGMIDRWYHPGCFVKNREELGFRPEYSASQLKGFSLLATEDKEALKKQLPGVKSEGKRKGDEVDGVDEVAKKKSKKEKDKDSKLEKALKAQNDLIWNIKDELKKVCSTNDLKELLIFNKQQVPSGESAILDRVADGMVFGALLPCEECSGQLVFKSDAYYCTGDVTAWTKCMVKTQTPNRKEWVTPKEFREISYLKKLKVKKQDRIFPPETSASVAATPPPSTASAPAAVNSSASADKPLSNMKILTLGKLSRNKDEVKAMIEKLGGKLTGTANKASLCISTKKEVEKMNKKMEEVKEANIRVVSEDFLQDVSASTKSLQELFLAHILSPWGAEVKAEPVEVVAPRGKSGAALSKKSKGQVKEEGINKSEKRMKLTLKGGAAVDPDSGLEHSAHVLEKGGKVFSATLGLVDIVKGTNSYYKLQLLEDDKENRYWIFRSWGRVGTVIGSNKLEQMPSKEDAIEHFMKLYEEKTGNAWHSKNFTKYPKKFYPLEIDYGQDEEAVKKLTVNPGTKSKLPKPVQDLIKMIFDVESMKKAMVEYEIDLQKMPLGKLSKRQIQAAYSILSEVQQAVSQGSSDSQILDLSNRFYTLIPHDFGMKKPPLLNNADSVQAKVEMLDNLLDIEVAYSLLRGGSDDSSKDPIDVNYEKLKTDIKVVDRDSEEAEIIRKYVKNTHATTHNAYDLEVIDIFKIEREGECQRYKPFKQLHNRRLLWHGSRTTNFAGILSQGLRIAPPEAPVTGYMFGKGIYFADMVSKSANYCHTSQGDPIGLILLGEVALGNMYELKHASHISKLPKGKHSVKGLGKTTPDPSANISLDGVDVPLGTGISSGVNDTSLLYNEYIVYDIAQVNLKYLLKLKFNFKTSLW

pIC50 [2] | Papp A→B ([3]; dog, apical to basolateral direction) [×10⁻⁶ cm/s] | efflux ratio ([3]; human, efflux ratio B→A/A→B, read-out: MDCK-MDR1 ER) | Kp uu at 24 h [4] | SMILES | efficacy in tumors [1]
– | – | – | – | C[C@]1(c2nc3c(C(N)=O)cccc3[nH]2)CCCN1 [veliparib] | not efficacious in most tumors
7.39 | 18.6 | 0.55 | 0.921 | O=c1[nH]nc2c3c(cc(F)cc13)NC[C@@H]2c1ccc(F)cc1F [Compound 0114B, (S)-9-(2,4-difluorophenyl)-5-fluoro-2,7,8,9-tetrahydro-3H-pyrido[4,3,2-de]phthalazin-3-one] | –

— patent publication US20250346599A1, “TRICYCLIC PHTHALAZINONE PARP INHIBITORS AND METHODS OF USE” (Valo Health, Inc., priority 2022, published 2025)
